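Grown in 96-well plates, cells were treated for 48 hours with each compound at five concentrations. Insufficient inhibition: endpoint recorded as highest concentration tested. The concentration for 50% growth inhibition is given as GI50.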 The source made the active and inactive calls. Rule as the data show it: active = GI50 up to about 1.1 µM and inactive = higher.
Experiments:
Assay in all cases: NCI tumour cell line growth inhibition, 48 h
786-0 = test system: 786-0
SK-MEL-28 = test system: SK-MEL-28
HCT-116 = test system: HCT-116
MOLT-4 = test system: MOLT-4
OVCAR-3 = test system: OVCAR-3
NCI-H23 = test system: NCI-H23
ACHN = test system: ACHN
MDA-MB-231 = test system: MDA-MB-231
IGROV-1 = test system: IGROV-1
UACC-257 = test system: UACC-257
M14 = test system: M14
U-251 = test system: U-251
MCF7 = test system: MCF7
MDA-MB-435 = test system: MDA-MB-435
HCT-15 = test system: HCT-15
HCC 2998 = test system: HCC 2998
EKVX = test system: EKVX
SK-MEL-2 = test system: SK-MEL-2
A549 = test system: A549
DU-145 = test system: DU-145
Malme-3M = test system: Malme-3M
SF-295 = test system: SF-295
NCI-H460 = test system: NCI-H460
SW-620 = test system: SW-620
LOX IMVI = test system: LOX IMVI
CCRF-CEM = test system: CCRF-CEM
T47D = test system: T47D
TK-10 = test system: TK-10
HOP-62 = test system: HOP-62
NCI-H522 = test system: NCI-H522
NCI-H226 = test system: NCI-H226
SNB-19 = test system: SNB-19
BT-549 = test system: BT-549
SF-268 = test system: SF-268
HT-29 = test system: HT-29
Hs-578T = test system: Hs-578T
OVCAR-4 = test system: OVCAR-4
SN12C = test system: SN12C
COLO 205 = test system: COLO 205
PC-3 = test system: PC-3
UO-31 = test system: UO-31
KM12 = test system: KM12
CAKI-1 = test system: CAKI-1
SK-OV-3 = test system: SK-OV-3
NCI/ADR-RES = test system: NCI/ADR-RES
OVCAR-5 = test system: OVCAR-5
SR = test system: SR
HOP-92 = test system: HOP-92
OVCAR-8 = test system: OVCAR-8
UACC-62 = test system: UACC-62
RPMI-8226 = test system: RPMI-8226
SK-MEL-5 = test system: SK-MEL-5
SF-539 = test system: SF-539
A498 = test system: A498
HL-60 = test system: HL-60
SNB-75 = test system: SNB-75
K562 = test system: K562

How did the GI50 (786-0) turn out when `CN(C)CCn1c2c(c3ccccc31)CCc1ccccc1-2` was run?
Its GI50 is 14.8 µM (inactive).

And the GI50 (SK-MEL-28)?
The GI50 was 15.8 µM (inactive).

What about the GI50 (HCT-116) of the same compound?
Its GI50 is 12 µM (inactive).

And the GI50 (MOLT-4)?
Its GI50 is 10.8 µM (inactive).

What about the GI50 (OVCAR-3) of the same compound?
The GI50 was 14.6 µM (inactive).

What about the GI50 (NCI-H23) of the same compound?
The GI50 was 17.4 µM (inactive).

And the GI50 (ACHN)?
The GI50 was 16.3 µM (inactive).

And the GI50 (MDA-MB-231)?
The GI50 was 13.9 µM (inactive).

What about the GI50 (IGROV-1) of the same compound?
Its GI50 is 10 µM (inactive).

What about the GI50 (UACC-257) of the same compound?
The GI50 was 14.6 µM (inactive).

What about the GI50 (M14) of the same compound?
The GI50 was 13.5 µM (inactive).

And the GI50 (U-251)?
The GI50 was 13.6 µM (inactive).

What about the GI50 (MCF7) of the same compound?
Its GI50 is 16.8 µM (inactive).

What about the GI50 (MDA-MB-435) of the same compound?
The GI50 was 17.4 µM (inactive).

What about the GI50 (HCT-15) of the same compound?
The GI50 was 10.7 µM.

What about the GI50 (HCC 2998) of the same compound?
The GI50 was 0.569 µM (active).

What about the GI50 (EKVX) of the same compound?
Its GI50 is 17.4 µM (inactive).

What about the GI50 (SK-MEL-2) of the same compound?
The GI50 was 15.3 µM (inactive).

What about the GI50 (A549) of the same compound?
Its GI50 is 15 µM (inactive).

What about the GI50 (DU-145) of the same compound?
Its GI50 is 16.1 µM (inactive).

What about the GI50 (Malme-3M) of the same compound?
Its GI50 is 16.1 µM (inactive).

And the GI50 (SF-295)?
The GI50 was 16.9 µM (inactive).

And the GI50 (NCI-H460)?
Its GI50 is 14.4 µM (inactive).

And the GI50 (SW-620)?
The GI50 was 18.8 µM (inactive).

What about the GI50 (LOX IMVI) of the same compound?
Its GI50 is 17 µM (inactive).

And the GI50 (CCRF-CEM)?
The GI50 was 18.7 µM (inactive).

And the GI50 (T47D)?
Its GI50 is 15.8 µM (inactive).

And the GI50 (TK-10)?
The GI50 was 16.7 µM (inactive).

And the GI50 (HOP-62)?
The GI50 was 15.7 µM (inactive).

And the GI50 (NCI-H522)?
Its GI50 is 15.9 µM (inactive).

What about the GI50 (NCI-H226) of the same compound?
Its GI50 is 12.8 µM (inactive).

And the GI50 (SNB-19)?
Its GI50 is 16.3 µM (inactive).

And the GI50 (BT-549)?
Its GI50 is 14.5 µM (inactive).

And the GI50 (SF-268)?
Its GI50 is 17.9 µM (inactive).

And the GI50 (HT-29)?
The GI50 was 8.99 µM (inactive).

What about the GI50 (Hs-578T) of the same compound?
The GI50 was 15.1 µM (inactive).

What about the GI50 (OVCAR-4) of the same compound?
Its GI50 is 14.3 µM (inactive).

And the GI50 (SN12C)?
Its GI50 is 13.8 µM (inactive).

What about the GI50 (COLO 205) of the same compound?
Its GI50 is 11.3 µM (inactive).

And the GI50 (PC-3)?
The GI50 was 11.4 µM (inactive).

What about the GI50 (UO-31) of the same compound?
The GI50 was 13.6 µM (inactive).

And the GI50 (KM12)?
Its GI50 is 13.4 µM (inactive).

What about the GI50 (CAKI-1) of the same compound?
Its GI50 is 14.9 µM (inactive).

What about the GI50 (SK-OV-3) of the same compound?
The GI50 was 18.7 µM (inactive).

What about the GI50 (NCI/ADR-RES) of the same compound?
Its GI50 is 15.6 µM (inactive).

What about the GI50 (OVCAR-5) of the same compound?
The GI50 was 17.9 µM (inactive).

And the GI50 (SR)?
The GI50 was 10.8 µM (inactive).

And the GI50 (HOP-92)?
The GI50 was 14 µM (inactive).

What about the GI50 (OVCAR-8) of the same compound?
The GI50 was 16 µM (inactive).

And the GI50 (UACC-62)?
Its GI50 is 13 µM (inactive).

And the GI50 (RPMI-8226)?
The GI50 was 6.49 µM (inactive).

What about the GI50 (SK-MEL-5) of the same compound?
Its GI50 is 6.1 µM (inactive).

And the GI50 (SF-539)?
The GI50 was 13.4 µM (inactive).

Which GI50 (786-0) does the source give for `COc1cc2nc(-c3cccs3)nc(Nc3cccc(Cl)c3)c2cc1OC` here?
Its GI50 is 53.2 µM (inactive).

And the GI50 (SK-MEL-28)?
Its GI50 is 81.8 µM (inactive).

And the GI50 (HCT-116)?
The GI50 was > 100 µM (inactive).

What about the GI50 (MOLT-4) of the same compound?
The GI50 was 61.8 µM (inactive).

What about the GI50 (A498) of the same compound?
Its GI50 is > 100 µM (inactive).

And the GI50 (OVCAR-3)?
Its GI50 is 52.8 µM (inactive).

And the GI50 (NCI-H23)?
Its GI50 is 54.6 µM (inactive).

What about the GI50 (ACHN) of the same compound?
Its GI50 is 78.5 µM (inactive).

What about the GI50 (MDA-MB-231) of the same compound?
Its GI50 is > 100 µM (inactive).

And the GI50 (IGROV-1)?
Its GI50 is 61.1 µM (inactive).

What about the GI50 (UACC-257) of the same compound?
The GI50 was > 100 µM (inactive).

What about the GI50 (M14) of the same compound?
Its GI50 is 78.3 µM (inactive).

What about the GI50 (U-251) of the same compound?
The GI50 was 35.9 µM (inactive).

What about the GI50 (MCF7) of the same compound?
Its GI50 is 53.6 µM (inactive).

And the GI50 (MDA-MB-435)?
Its GI50 is 61.9 µM (inactive).

What about the GI50 (HL-60) of the same compound?
Its GI50 is > 100 µM (inactive).

What about the GI50 (HCT-15) of the same compound?
Its GI50 is 88.9 µM.

And the GI50 (EKVX)?
Its GI50 is 88.9 µM (inactive).

And the GI50 (SK-MEL-2)?
Its GI50 is > 100 µM (inactive).

What about the GI50 (A549) of the same compound?
The GI50 was 50.9 µM (inactive).

And the GI50 (DU-145)?
Its GI50 is 90.6 µM (inactive).

What about the GI50 (Malme-3M) of the same compound?
The GI50 was 27.7 µM (inactive).

What about the GI50 (SF-295) of the same compound?
Its GI50 is 22.5 µM (inactive).

And the GI50 (NCI-H460)?
Its GI50 is 42.8 µM (inactive).

What about the GI50 (SW-620) of the same compound?
Its GI50 is > 100 µM (inactive).

And the GI50 (LOX IMVI)?
The GI50 was 42.6 µM (inactive).

What about the GI50 (SNB-75) of the same compound?
The GI50 was 36.3 µM (inactive).

What about the GI50 (CCRF-CEM) of the same compound?
The GI50 was 34 µM (inactive).

What about the GI50 (T47D) of the same compound?
The GI50 was 44.6 µM (inactive).

And the GI50 (TK-10)?
The GI50 was 2.3 µM (inactive).

And the GI50 (HOP-62)?
Its GI50 is 20.3 µM (inactive).

And the GI50 (NCI-H522)?
The GI50 was 64.6 µM (inactive).

And the GI50 (NCI-H226)?
Its GI50 is 50.6 µM (inactive).

What about the GI50 (SNB-19) of the same compound?
Its GI50 is 35.2 µM (inactive).

And the GI50 (BT-549)?
Its GI50 is 59.2 µM (inactive).

What about the GI50 (SF-268) of the same compound?
Its GI50 is 31.3 µM (inactive).

And the GI50 (HT-29)?
The GI50 was > 100 µM (inactive).

And the GI50 (Hs-578T)?
Its GI50 is 31.6 µM (inactive).

What about the GI50 (OVCAR-4) of the same compound?
Its GI50 is 28.8 µM (inactive).

What about the GI50 (SN12C) of the same compound?
Its GI50 is > 100 µM (inactive).

And the GI50 (COLO 205)?
Its GI50 is > 100 µM (inactive).

And the GI50 (PC-3)?
Its GI50 is 21.1 µM (inactive).

And the GI50 (UO-31)?
Its GI50 is > 100 µM (inactive).

What about the GI50 (KM12) of the same compound?
The GI50 was 43.2 µM (inactive).

What about the GI50 (CAKI-1) of the same compound?
Its GI50 is > 100 µM (inactive).

And the GI50 (SK-OV-3)?
Its GI50 is 48.1 µM (inactive).

And the GI50 (NCI/ADR-RES)?
Its GI50 is 48.2 µM (inactive).

What about the GI50 (OVCAR-5) of the same compound?
Its GI50 is > 100 µM (inactive).

What about the GI50 (SR) of the same compound?
The GI50 was 91.6 µM (inactive).

And the GI50 (HOP-92)?
Its GI50 is 55 µM (inactive).

What about the GI50 (OVCAR-8) of the same compound?
Its GI50 is 37.8 µM (inactive).

And the GI50 (UACC-62)?
The GI50 was > 100 µM (inactive).

And the GI50 (RPMI-8226)?
The GI50 was 51.9 µM (inactive).

What about the GI50 (SK-MEL-5) of the same compound?
The GI50 was > 100 µM (inactive).

And the GI50 (K562)?
Its GI50 is > 100 µM (inactive).

And the GI50 (SF-539)?
Its GI50 is 37.2 µM (inactive).

Reference: ChEMBL document CHEMBL1201862, “PubChem BioAssay data set” (2004)
